Measured values reported in the NIST ThermoML archive (doi:10.1021/je400423u).

Experiment: xn = mol fraction of the nth substance listed
Settings: 101 kPa, Liquid; for viscosity: Falling or rolling sphere viscometry; for mass density: Vibrating tube method

CC(C)CO [2-methyl-1-propanol] + CC(C)(C)O
Settings | mass density [kg/m3] | viscosity [mPa·s]
308.15 K, x1 = 0.1038 | 773.016 | 2.723
308.15 K, x1 = 0.2004 | 775.321 | 2.802
308.15 K, x1 = 0.3131 | 777.898 | 2.84
308.15 K, x1 = 0.3971 | 779.742 | 2.837
308.15 K, x1 = 0.4999 | 781.894 | 2.812
308.15 K, x1 = 0.6002 | 783.901 | 2.773
308.15 K, x1 = 0.6999 | 785.765 | 2.723
308.15 K, x1 = 0.7993 | 787.468 | 2.667
308.15 K, x1 = 0.8941 | 788.855 | 2.607
308.15 K, x1 = 1 | 790.12 | 2.382
313.15 K, x1 = 0.1038 | 767.906 | 2.19
313.15 K, x1 = 0.2004 | 770.357 | 2.263
313.15 K, x1 = 0.3131 | 773.062 | 2.312
313.15 K, x1 = 0.3971 | 774.993 | 2.327
313.15 K, x1 = 0.4999 | 777.281 | 2.329
313.15 K, x1 = 0.6002 | 779.435 | 2.317
313.15 K, x1 = 0.6999 | 781.451 | 2.294
313.15 K, x1 = 0.7993 | 783.274 | 2.264
313.15 K, x1 = 0.8941 | 784.79 | 2.229
313.15 K, x1 = 1 | 786.12 | 2.116
318.15 K, x1 = 0.1038 | 762.689 | 1.786
318.15 K, x1 = 0.2004 | 765.271 | 1.852
318.15 K, x1 = 0.3131 | 768.112 | 1.904
318.15 K, x1 = 0.3971 | 770.15 | 1.93
318.15 K, x1 = 0.4999 | 772.578 | 1.949
318.15 K, x1 = 0.6002 | 774.881 | 1.955
318.15 K, x1 = 0.6999 | 777.066 | 1.954
318.15 K, x1 = 0.7993 | 779.045 | 1.94
318.15 K, x1 = 0.8941 | 780.694 | 1.919
318.15 K, x1 = 1 | 782.06 | 1.861
323.15 K, x1 = 0.1038 | 757.428 | 1.479
323.15 K, x1 = 0.2004 | 760.154 | 1.536
323.15 K, x1 = 0.3131 | 763.135 | 1.59
323.15 K, x1 = 0.3971 | 765.278 | 1.619
323.15 K, x1 = 0.4999 | 767.832 | 1.643
323.15 K, x1 = 0.6002 | 770.282 | 1.658
323.15 K, x1 = 0.6999 | 772.615 | 1.664
323.15 K, x1 = 0.7993 | 774.761 | 1.662
323.15 K, x1 = 0.8941 | 776.498 | 1.655
323.15 K, x1 = 1 | 777.93 | 1.602
328.15 K, x1 = 0.1038 | 752.049 | 1.243
328.15 K, x1 = 0.2004 | 754.907 | 1.293
328.15 K, x1 = 0.3131 | 758.027 | 1.342
328.15 K, x1 = 0.3971 | 760.272 | 1.372
328.15 K, x1 = 0.4999 | 762.978 | 1.4
328.15 K, x1 = 0.6002 | 765.582 | 1.42
328.15 K, x1 = 0.6999 | 768.076 | 1.433
328.15 K, x1 = 0.7993 | 770.382 | 1.438
328.15 K, x1 = 0.8941 | 772.239 | 1.439
328.15 K, x1 = 1 | 773.73 | –
333.15 K, x1 = 0.1038 | 746.582 | 1.057
333.15 K, x1 = 0.2004 | 749.576 | 1.099
333.15 K, x1 = 0.3131 | 752.825 | 1.145
333.15 K, x1 = 0.3971 | 755.183 | 1.173
333.15 K, x1 = 0.4999 | 758.038 | 1.202
333.15 K, x1 = 0.6002 | 760.796 | 1.224
333.15 K, x1 = 0.6999 | 763.457 | 1.241
333.15 K, x1 = 0.7993 | 765.918 | 1.251
333.15 K, x1 = 0.8941 | 767.911 | 1.257
333.15 K, x1 = 1 | 769.44 | –
338.15 K, x1 = 0.1038 | 741.045 | 0.9089
338.15 K, x1 = 0.2004 | 744.179 | 0.9461
338.15 K, x1 = 0.3131 | 747.58 | 0.9857
338.15 K, x1 = 0.3971 | 750.026 | 1.013
338.15 K, x1 = 0.4999 | 753.002 | 1.042
338.15 K, x1 = 0.6002 | 755.897 | 1.064
338.15 K, x1 = 0.6999 | 758.701 | 1.081
338.15 K, x1 = 0.7993 | 761.298 | 1.094
338.15 K, x1 = 0.8941 | 763.412 | 1.105
338.15 K, x1 = 1 | 765.07 | –
343.15 K, x1 = 0.1038 | 735.409 | 0.7889
343.15 K, x1 = 0.2004 | 738.697 | 0.8213
343.15 K, x1 = 0.3131 | 742.239 | 0.8569
343.15 K, x1 = 0.3971 | 744.793 | 0.8812
343.15 K, x1 = 0.4999 | 747.895 | 0.9085
343.15 K, x1 = 0.6002 | 750.924 | 0.9302
343.15 K, x1 = 0.6999 | 753.891 | 0.9494
343.15 K, x1 = 0.7993 | 756.647 | 0.9642
343.15 K, x1 = 0.8941 | 758.895 | 0.9753
343.15 K, x1 = 1 | 760.61 | –

CC(C)CO [2-methyl-1-propanol] + CCC(C)O
Settings | mass density [kg/m3] | viscosity [mPa·s]
303.15 K, x2 = 0.1009 | 794.484 | –
303.15 K, x2 = 0.2 | 794.891 | –
303.15 K, x2 = 0.3008 | 795.309 | –
303.15 K, x2 = 0.4 | 795.723 | –
303.15 K, x2 = 0.5002 | 796.151 | –
303.15 K, x2 = 0.5999 | 796.585 | –
303.15 K, x2 = 0.7004 | 797.029 | –
303.15 K, x2 = 0.8007 | 797.475 | –
303.15 K, x2 = 0.9005 | 797.918 | –
308.15 K, x2 = 0.1009 | 790.501 | 2.443
308.15 K, x2 = 0.2 | 790.872 | 2.386
308.15 K, x2 = 0.3008 | 791.253 | 2.337
308.15 K, x2 = 0.4 | 791.633 | 2.292
308.15 K, x2 = 0.5002 | 792.024 | 2.248
308.15 K, x2 = 0.5999 | 792.423 | 2.206
308.15 K, x2 = 0.7004 | 792.831 | 2.168
308.15 K, x2 = 0.8007 | 793.242 | 2.139
308.15 K, x2 = 0.9005 | 793.65 | 2.127
313.15 K, x2 = 0.1009 | 786.45 | 2.107
313.15 K, x2 = 0.2 | 786.78 | 2.053
313.15 K, x2 = 0.3008 | 787.122 | 2.005
313.15 K, x2 = 0.4 | 787.465 | 1.962
313.15 K, x2 = 0.5002 | 787.818 | 1.92
313.15 K, x2 = 0.5999 | 788.177 | 1.881
313.15 K, x2 = 0.7004 | 788.546 | 1.845
313.15 K, x2 = 0.8007 | 788.917 | 1.816
313.15 K, x2 = 0.9005 | 789.288 | 1.804
318.15 K, x2 = 0.1009 | 782.34 | 1.824
318.15 K, x2 = 0.2 | 782.624 | 1.772
318.15 K, x2 = 0.3008 | 782.922 | 1.727
318.15 K, x2 = 0.4 | 783.222 | 1.685
318.15 K, x2 = 0.5002 | 783.533 | 1.646
318.15 K, x2 = 0.5999 | 783.848 | 1.608
318.15 K, x2 = 0.7004 | 784.171 | 1.575
318.15 K, x2 = 0.8007 | 784.497 | 1.551
318.15 K, x2 = 0.9005 | 784.827 | 1.54
323.15 K, x2 = 0.1009 | 778.155 | 1.59
323.15 K, x2 = 0.2 | 778.391 | 1.544
323.15 K, x2 = 0.3008 | 778.641 | 1.5
323.15 K, x2 = 0.4 | 778.895 | 1.46
323.15 K, x2 = 0.5002 | 779.158 | 1.422
323.15 K, x2 = 0.5999 | 779.423 | 1.387
323.15 K, x2 = 0.7004 | 779.696 | 1.357
323.15 K, x2 = 0.8007 | 779.974 | 1.336
323.15 K, x2 = 0.9005 | 780.258 | 1.326
328.15 K, x2 = 0.1009 | 773.896 | 1.393
328.15 K, x2 = 0.2 | 774.077 | 1.35
328.15 K, x2 = 0.3008 | 774.275 | 1.309
328.15 K, x2 = 0.4 | 774.479 | 1.27
328.15 K, x2 = 0.5002 | 774.689 | 1.235
328.15 K, x2 = 0.5999 | 774.903 | 1.204
328.15 K, x2 = 0.7004 | 775.122 | 1.178
328.15 K, x2 = 0.8007 | 775.348 | 1.161
328.15 K, x2 = 0.9005 | 775.581 | 1.152
333.15 K, x2 = 0.1009 | 769.551 | 1.225
333.15 K, x2 = 0.2 | 769.674 | 1.186
333.15 K, x2 = 0.3008 | 769.816 | 1.148
333.15 K, x2 = 0.4 | 769.965 | 1.112
333.15 K, x2 = 0.5002 | 770.119 | 1.079
333.15 K, x2 = 0.5999 | 770.277 | 1.051
333.15 K, x2 = 0.7004 | 770.441 | 1.029
333.15 K, x2 = 0.8007 | 770.611 | 1.014
333.15 K, x2 = 0.9005 | 770.793 | 1.006
338.15 K, x2 = 0.1009 | 765.116 | 1.082
338.15 K, x2 = 0.2 | 765.18 | 1.047
338.15 K, x2 = 0.3008 | 765.264 | 1.012
338.15 K, x2 = 0.4 | 765.355 | 0.9794
338.15 K, x2 = 0.5002 | 765.452 | 0.9497
338.15 K, x2 = 0.5999 | 765.551 | 0.9246
338.15 K, x2 = 0.7004 | 765.654 | 0.9053
338.15 K, x2 = 0.8007 | 765.765 | 0.8922
338.15 K, x2 = 0.9005 | 765.89 | 0.8861
343.15 K, x2 = 0.1009 | 760.581 | 0.9613
343.15 K, x2 = 0.2 | 760.585 | 0.9301
343.15 K, x2 = 0.3008 | 760.608 | 0.8988
343.15 K, x2 = 0.4 | 760.64 | 0.8691
343.15 K, x2 = 0.5002 | 760.676 | 0.8429
343.15 K, x2 = 0.5999 | 760.714 | 0.8207
343.15 K, x2 = 0.7004 | 760.754 | 0.8035
343.15 K, x2 = 0.8007 | 760.802 | 0.7921
343.15 K, x2 = 0.9005 | 760.867 | 0.7862
